Results published in ChEMBL document CHEMBL4680271, “COVID-19: Drug Targets and Potential Treatments” (J Med Chem, 2020).

Test: Inhibition of CTSL/CTSB in 293T/17 cells harboring ACE2 assessed as reduction in SARS-CoV-2 S pseudovirions entry into host cell incubated for 2 days by luciferase method
Assay type: cell-based
Details: Severe acute respiratory syndrome-related coronavirus, HEK293T/17, 48 h

Compound	IC50
CC(C)(C)N1CCN(C(=O)N[C@@H](Cc2ccccc2)C(=O)N[C@H](/C=C/S(=O)(=O)c2ccccc2)CCc2ccccc2)CC1	0.08 nM
CN1CCN(C(=O)N[C@@H](Cc2ccccc2)C(=O)N[C@H](/C=C/S(=O)(=O)c2ccccc2)CCc2ccccc2)CC1 [K-777]	0.32 nM
